# Source: patent publication US20060100431A1, “Biologically active compounds” (Amura Therapeutics Limited, priority 2002, published 2006)
# Key:
# Format in all cases: biochemical
# Wild-type cruzipain = Wild-type cruzipain (Trypanosoma cruzi, UniProt P25779); assay: Trypanosoma cruzi cruzipain peptidase activity assay (Ki); details: read-out: Ki, inhibitors of cruzain and cruzipains
# Outline: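 Native cruzipain from T. cruzi Dm28 epimastigotes, 2.5 nM, in 100 mM sodium phosphate pH 6.75 with 1 mM EDTA and 10 mM L-cysteine, 25 °C, DMSO <1%. Rates taken from continuous fluorogenic substrate read; Ki by regression assuming reversible pure-competitive inhibition.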
# human cathepsin L = biological target: T1, human cathepsin L (Homo sapiens, UniProt P07711); assay: Cathepsin L peptidase activity assay (Ki); details: read-out: Ki, inhibitors of cathepsin L
# T1 construct: purchased CN Biosciences
# Procedure: Unless otherwise stated, all general chemicals and biochemicals were purchased from either the Sigma Chemical Company, Poole, Dorset, U.K or from Fisher Scientific UK, Loughborough, Leicestershire, U.K. Absorbance assays were carried out in flat-bottomed 96-well plates (Spectra; Greiner Bio-One Ltd., Stonehouse, Gloucestershire, U.K.) using a SpectraMax PLUS384 plate reader (Molecular Devices, Crawley, U.K.). Fluorescence high throughput assays were carried out in either 384-well microtitre plates (Corning Costar 3705 plates, Fisher Scientific) or 96-well ‘U’ bottomed Microfluor W1 microtitre plates (Thermo Labsystems, Ashford, Middlesex, U.K.). Fluorescence assays were monitored using a SpectraMax Gemini fluorescence plate reader (Molecular Devices). For substrates employing either a 7-amino-4-methylcoumarin (AMC) or a 7-amino-4-trifluoromethylcoumarin (AFC) fluorophore, assays were monitored at an excitation wavelength of 365 nm and an emission wavelength of 450 nm and the fluorescence plate reader calibrated with AMC. For substrates employing a 3-amino-benzoyl (Abz) fluorophore, assays were monitored at an excitation wavelength of 310 nm and an emission wavelength of 445 nm; the fluorescence plate reader calibrated with 3-amino-benzamide (Fluka). Unless otherwise indicated, all the peptidase substrates were purchased from Bachem UK, St Helens, Merseyside, UK. Substrates utilizing fluorescence resonance energy transfer methodology (i.e. FRET-based substrates) were synthesized at Incenta Limited using published methods (Atherton & Sheppard, Solid Phase Peptide Synthesis, IRL Press, Oxford, U.K, 1989) and employed Abz (2-aminobenzoyl) as the fluorescence donor and 3-nitro-tyrosine [Tyr(NO2)] as the fluorescence quencher (Meldal, M. and Breddam, K., Anal. Biochem, 195, 141-147, 1991). Hydroxyethylpiperazine ethanesulfonate (HEPES), tris-hydroxylmethyl aminomethane (tris) base, bis-tris-propane and all the biological detergents (e.g. CHAPS, zwittergents, etc.) were purchased from CN Biosciences UK, Beeston, Nottinghamshire, U.K. Glycerol was purchased from Amersham Pharmacia Biotech, Little Chalfont, Buckinghamshire, U.K. Stock solutions of substrate or inhibitor were made up to 10 mM in 100% dimethylsulfoxide (DMSO) (Rathburns, Glasgow, U.K.) and diluted as appropriately required. In all cases the DMSO concentration in the assays was maintained at less than 1% (vol./vol.).
# Assay protocols were based on literature precedent (Table 4; Barrett, A. J., Rawlings, N. D. and Woessner, J. F., 1998, Handbook of Proteolytic Enzymes, Academic Press, London and references therein) and modified as required to suit local assay protocols. Enzyme was added as required to initiate the reaction and the activity, as judged by the change in fluorescence upon conversion of substrate to product, was monitored over time. All assays were carried out at 25±1° C.
# Bovine cathepsin S, human cathepsin L, human cathepsin H and human cathepsin B were obtained from CN Biosciences. Recombinant human cathepsin S, human cathepsin K and human cathepsin X were obtained from Dr. Boris Turk (Josef Stefan Institute, Ljubljana, Slovenia). Unless otherwise stated, all peptidase activity assays were carried out in 10 mM bis-tris-propane (BTP), pH 6.5 containing 1 mM EDTA, 5 mM 2-mercaptoethanol and 1 mM CaCl2. Human cathepsin H activity assays were carried out in 10 mM BTP pH 6.5, 142 mM NaCl2, 1 mM CaCl2, 1 mM EDTA, 1 mM DTT, 0.035 mM Zwittergent 3-16. Human cathepsin K assays were carried out in 100 mM sodium acetate; pH 5.5 containing 20 mM L-cysteine and 1 mM EDTA (Bossard, M. J., et. al., J. Biol. Chem., 21, 12517-12524, 1996). Human cathepsin X assays were carried out in 100 mM sodium acetate; pH 5.5 containing 20 mM L-cysteine; 0.05% (w/v) Brij 35 and 1 mM EDTA (Santamaria, I., et. al., J. Biol. Chem., 273, 16816-16823, 1998; Klemencic, J, et al., Eur. J. Biochem., 267, 5404-5412, 2000). […]
# CPB2.8ΔCTE = biological target: T2, CPB2.8ΔCTE (Leishmania mexicana, UniProt P36400); assay: Leishmania mexicana cysteine protease B (CPB) peptidase activity assay (Ki); details: Ki, inhibitors of Leismania mexicana CPB protease
# T2 construct: Wild-type recombinant CPB without the C-terminal extention (i.e. CPB2.8ΔCTE); Dr. Jeremy Mottram (Wellcome Centre for Molecular Parasitology, University of Glasgow)
# Outline: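 Apparent Ki was derived by regression of activity against inhibitor concentration, assuming pure-competitive reversible binding. Reaction: 0.25 nM CPB lacking the C-terminal extension, pH 5.5 acetate buffer (1 mM EDTA, 200 mM NaCl, 10 mM DTT), 25 °C, followed by continuous substrate fluorescence.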
# T1 sequence (P07711 114-333): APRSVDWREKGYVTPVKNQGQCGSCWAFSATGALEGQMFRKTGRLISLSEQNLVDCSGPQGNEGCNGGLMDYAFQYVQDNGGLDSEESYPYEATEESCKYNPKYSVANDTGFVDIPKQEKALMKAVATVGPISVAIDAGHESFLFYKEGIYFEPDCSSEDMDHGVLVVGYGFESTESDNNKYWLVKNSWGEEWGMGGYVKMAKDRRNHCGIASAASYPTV
# Sequence of Wild-type cruzipain (P25779 whole entry): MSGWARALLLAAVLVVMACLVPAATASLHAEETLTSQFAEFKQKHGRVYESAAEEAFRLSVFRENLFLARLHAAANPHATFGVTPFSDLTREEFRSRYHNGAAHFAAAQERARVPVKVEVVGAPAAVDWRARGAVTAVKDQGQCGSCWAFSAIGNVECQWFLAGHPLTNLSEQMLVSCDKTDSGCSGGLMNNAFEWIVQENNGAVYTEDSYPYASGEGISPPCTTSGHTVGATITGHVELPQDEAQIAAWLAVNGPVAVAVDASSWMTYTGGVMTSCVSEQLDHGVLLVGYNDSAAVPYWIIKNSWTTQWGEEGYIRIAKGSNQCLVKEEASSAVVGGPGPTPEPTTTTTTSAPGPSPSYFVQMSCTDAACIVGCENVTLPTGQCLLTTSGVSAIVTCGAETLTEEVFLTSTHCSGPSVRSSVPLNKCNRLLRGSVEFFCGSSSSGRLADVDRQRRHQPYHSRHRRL
# T2 sequence (P36400 126-343, stated change not applied): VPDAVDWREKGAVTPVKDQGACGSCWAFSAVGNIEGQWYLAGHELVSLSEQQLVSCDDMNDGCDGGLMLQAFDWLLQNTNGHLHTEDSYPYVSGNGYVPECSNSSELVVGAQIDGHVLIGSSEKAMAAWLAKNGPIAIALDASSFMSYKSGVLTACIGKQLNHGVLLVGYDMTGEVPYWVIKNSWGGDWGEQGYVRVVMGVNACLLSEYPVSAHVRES
Ki (human cathepsin L) [µM],SMILES,Ki (Wild-type cruzipain) [µM],Ki (CPB2.8ΔCTE) [µM]
< 5,"CC(C)C[C@H](NC(=O)c1ccc2ccccc2n1)C(=O)N1CC[C@@H]2[C@H]1C(=O)CN2C(=O)c1cccnc1 [Example 18, (3aR,6aS)-Quinoline-2-carboxylic acid {(1S)-3-methyl-1-[6-oxo-4-(pyridine-3-carbonyl)-hexahydro-pyrrolo[3,2-b]pyrrole-1-carbonyl]-butyl}-amide]",< 5,
< 5,"CC(C)C[C@H](NC(=O)c1ccc(N(C)C)cc1)C(=O)N1CC[C@@H]2[C@H]1C(=O)CN2C(=O)c1ccc(Cl)o1 [Example 244, (3aR,6aS)-N-{(1S)-1-[4-(5-Chloro-furan-2-carbonyl)-6-oxo-hexahydro-pyrrolo[3,2-b]pyrrole-1-carbonyl]-3-methyl-butyl}-4-dimethylamino-benzamide]",< 5,
< 5,"Nc1ccc(C(=O)N2CC(=O)[C@@H]3[C@H]2CCN3C(=O)[C@H](CSCc2ccccc2)NC(=O)c2ccsc2)cc1 [Example 268, (3aR,6aS)-Thiophene-3-carboxylic acid {(1R)-2-(4-(4-amino-benzoyl)-6-oxo-hexahydro-pyrrolo[3,2-b]pyrrol-1-yl]-1-benzylsulfanylmethyl-2-oxo-ethyl}-amide]",,
< 5,"O=C(N[C@@H](CC1CCCCC1)C(=O)N1CC[C@@H]2[C@H]1C(=O)CN2C(=O)c1ccccc1)C(c1ccccc1)c1ccccc1 [Example 270, (3aR,6aS)-N-[(1S)-2-(4-Benzoyl-6-oxo-hexahydro-pyrrolo[3,2-b]pyrrol-1-yl)-1-cyclohexylmethyl-2-oxo-ethyl]-2,2-diphenyl-acetamide]",,
< 5,"O=C(N[C@@H](CSCc1ccccc1)C(=O)N1CC[C@@H]2[C@H]1C(=O)CN2C(=O)c1ccsc1)c1ccsc1 [Example 272, (3aR,6aS)-Thiophene-3-carboxylic acid {(1R)-1-benzylsulfanylmethyl-2-oxo-2-[6-oxo-4-(thiophene-3-carbonyl)-hexahydro-pyrrolo[3,2-b]pyrrol-1-yl]-ethyl}-amide]",,
< 5,"O=C1CN(C(=O)c2ccccc2)[C@@H]2CCN(C(=O)[C@H](CC3CCCCC3)NC(=O)N3CCOCC3)[C@H]12 [Example 280, (3aR,6aS)-Morpholine-4-carboxylic acid [(1S)-2-(4-benzoyl-6-oxo-hexahydro-pyrrolo[3,2-b]pyrrole-1-yl)-1-cyclohexylmethyl-2-oxo-ethyl]-amide]",,
< 5,"O=C(N[C@@H](CSCc1ccccc1)C(=O)N1CC[C@@H]2[C@H]1C(=O)CN2C(=O)c1ccccc1)c1cccs1 [Example 282, (3aR,6aS)-Thiophene-2-carboxylic acid [(1R)-2-(4-benzoyl-6-oxo-hexahydro-pyrrolo[3,2-b]pyrrole-1-yl)-1-benzylsulfanylmethyl-2-oxo-ethyl]-amide]",,
< 5,"O=C(N[C@@H](CSCc1ccccc1)C(=O)N1CC[C@@H]2[C@H]1C(=O)CN2C(=O)c1ccccc1)c1ccccc1 [Example 285, (3aR,6aS)-N-[(1R)-2-(4-Benzoyl-6-oxo-hexahydro-pyrrolo[3,2-b]pyrrol-1-yl)-1-benzylsulfanylmethyl-2-oxo-ethyl]-benzamide]",,
< 5,"O=C(N[C@@H](CC1CCCCC1)C(=O)N1CC[C@@H]2[C@H]1C(=O)CN2C(=O)c1ccccc1)c1ccoc1 [Example 289, (3aR,6aS)-Furan-3-carboxylic acid [(1S)-2-(4-benzoyl-6-oxo-hexahydro-pyrrolo[3,2-b]pyrrole-1-yl)-1-cyclohexylmethyl-2-oxo-ethyl]-amide]",,
< 5,"Cc1ccccc1C(=O)N1CC(=O)[C@@H]2[C@H]1CCN2C(=O)[C@H](CC1CCCCC1)NC(=O)c1ccsc1 [Example 291, (3aR,6aS)-Thiophene-3-carboxylic acid {(1S)-1-cyclohexylmethyl-2-[4-(2-methyl-benzoyl)-6-oxo-hexahydro-pyrrolo[3,2-b]pyrrol-1-yl]-2-oxo-ethyl}-amide]",,
< 5,"Cc1ccc(C(=O)N2CC(=O)[C@@H]3[C@H]2CCN3C(=O)[C@H](CC2CCCCC2)NC(=O)c2ccsc2)cc1 [Example 293, (3aR,6aS)-Thiophene-3-carboxylic acid {(1S)-1-cyclohexylmethyl-2-[4-(4-methyl-benzoyl)-6-oxo-hexahydro-pyrrolo[3,2-b]pyrrol-1-yl]-2-oxo-ethyl}-amide]",,
,"CS(=O)(=O)c1ccccc1C(=O)N1CC(=O)[C@@H]2[C@H]1CCN2C(=O)[C@H](Cc1ccc(O)cc1)NC(=O)c1cccc(CN)c1 [Example 332, (3aR,6aS)-3-Aminomethyl-N-{(1S)-1-(4-hydroxy-benzyl)-2-[4-(2-methanesulfonyl-benzoyl)-6-oxo-hexahydro-pyrrolo[3,2-b]pyrrole-1-yl]-2-oxo-ethyl}-benzamide]",< 5,< 5
,"CC(=O)N[C@@H](CC(C)C)C(=O)N1CC(=O)[C@@H]2[C@H]1CCN2C(=O)[C@H](Cc1ccc(O)cc1)NC(=O)c1cccc(Br)c1 [Example 345, (3aR,6aS)-N-[(1S)-2-[4-((2S)-2-Acetylamino-4-methyl-pentanoyl)-6-oxo-hexahydro-pyrrolo[3,2-b]pyrrol-1-yl]-1-(4-hydroxy-benzyl)-2-oxo-ethyl]-3-bromo-benzamide]",< 5,< 5
< 5,"CN(C)c1ccc(C(=O)N[C@@H](Cc2ccc(O)cc2)C(=O)N2CC[C@@H]3[C@H]2C(=O)CN3C(=O)c2ccccc2)cc1 [Example 356, (3aR,6aS)-N-[(1S)-2-(4-Benzoyl-6-oxo-hexahydro-pyrrolo[3,2-b]pyrrol-1-yl)-1-(4-hydroxy-benzyl)-2-oxo-ethyl)-4-dimethylamino-benzamide]",,
< 5,"CN(C)c1ccc(C(=O)N[C@@H](Cc2ccc(O)cc2)C(=O)N2CC[C@@H]3[C@H]2C(=O)CN3C(=O)c2ccccc2S(C)(=O)=O)cc1 [Example 357, (3aR,6aS)-4-Dimethylamino-N-{(1S)-1-(4-hydroxy-benzyl)-2-[4-(2-methanesulfonyl-benzoyl)-6-oxo-hexahydro-pyrrolo[3,2-b]pyrrole-1-yl]-2-oxo-ethyl}-benzamide]",,
< 5,"CN(C)c1ccc(C(=O)N[C@@H](Cc2ccc(O)cc2)C(=O)N2CC[C@@H]3[C@H]2C(=O)CN3C(=O)c2cccc(S(C)(=O)=O)c2)cc1 [Example 358, (3aR,6aS)-4-Dimethylamino-N-{(1S)-1-(4-hydroxy-benzyl)-2-[4-(3-methanesulfonyl-benzoyl)-6-oxo-hexahydro-pyrrolo[3,2-b]pyrrol-1-yl]-2-oxo-ethyl}-benzamide]",,
< 5,"CN(C)c1ccc(C(=O)N[C@@H](Cc2ccc(O)cc2)C(=O)N2CC[C@@H]3[C@H]2C(=O)CN3C(=O)c2cccs2)cc1 [Example 359, (3aR,6aS)-4-Dimethylamino-N-{(1S)-1-(4-hydroxy-benzyl)-2-oxo-2-[6-oxo-4-(thiophene-2-carbonyl)-hexahydro-pyrrolo[3,2-b]pyrrol-1-yl]-ethyl}-benzamide]",,
